Test results reported in the kinase profiling compilation of Christmann-Franck et al. (2016).

Assays:
Test in all cases: radiometric filter-binding kinase assay, Kinase HotSpot
Conditions in all cases: compound 0.5 µM; ATP 10 µM
[1] = target: PTK2 (human) (UniProt Q05397)
[2] = target: MKNK2 (human) (UniProt Q9HBH9)
[3] = target: PASK (human) (UniProt Q96RG2)
[4] = target: ERBB2 (human) (UniProt P04626)
[5] = target: PRKCD (human) (UniProt Q05655)
[6] = target: CAMK4 (human) (UniProt Q16566)
[7] = target: MAPKAPK5 (human) (UniProt Q8IW41)
[8] = target: FGFR3 (human) (UniProt P22607)
[9] = target: AKT3 (human) (UniProt Q9Y243)
[10] = target: ACVR1 (human) (UniProt Q04771)
[11] = target: STK16 (human) (UniProt O75716)
[12] = target: SGK2 (human) (UniProt Q9HBY8)
[13] = target: STK10 (human) (UniProt O94804)
[14] = target: CLK4 (human) (UniProt Q9HAZ1)
[15] = target: TAOK1 (human) (UniProt Q7L7X3)
[16] = target: MAPK12 (human) (UniProt P53778)
[17] = target: MET (human) (UniProt P08581)
[18] = target: PLK1 (human) (UniProt P53350)
[19] = target: MAPK3 (human) (UniProt P27361)
[20] = target: BMX (human) (UniProt P51813)
[21] = target: CSNK1E (human) (UniProt P49674)
[22] = target: FGFR2 (human) (UniProt P21802)
[23] = target: STK11 (human) (UniProt Q15831)
[24] = target: RAF1 (human) (UniProt P04049)
[25] = target: SRMS (human) (UniProt Q9H3Y6)
[26] = target: NEK2 (human) (UniProt P51955)
[27] = target: MAPK14 (human) (UniProt Q16539)
[28] = target: CSF1R (human) (UniProt P07333)
[29] = target: JAK3 JH1 JH2 (human) (UniProt P52333)
[30] = target: ROCK1 (human) (UniProt Q13464)
[31] = target: PTK6 (human) (UniProt Q13882)
[32] = target: ERBB4 (human) (UniProt Q15303)
[33] = target: LTK (human) (UniProt P29376)
[34] = target: FGFR4 (human) (UniProt P22455)
[35] = target: MINK1 (human) (UniProt Q8N4C8)
[36] = target: TYRO3 (human) (UniProt Q06418)
[37] = target: MAP3K10 (human) (UniProt Q02779)
[38] = target: MAP4K4 (human) (UniProt O95819)
[39] = target: RPS6KA2 KD1 KD2 (human) (UniProt Q15349)
[40] = target: RPS6KB2 (human) (UniProt Q9UBS0)
[41] = target: CDK5 CDK5R1 p25 (human) (UniProt Q00535+Q15078)
[42] = target: TNK2 (human) (UniProt Q07912)

Chain of CSF1R (human) (P07333 whole entry, looked up): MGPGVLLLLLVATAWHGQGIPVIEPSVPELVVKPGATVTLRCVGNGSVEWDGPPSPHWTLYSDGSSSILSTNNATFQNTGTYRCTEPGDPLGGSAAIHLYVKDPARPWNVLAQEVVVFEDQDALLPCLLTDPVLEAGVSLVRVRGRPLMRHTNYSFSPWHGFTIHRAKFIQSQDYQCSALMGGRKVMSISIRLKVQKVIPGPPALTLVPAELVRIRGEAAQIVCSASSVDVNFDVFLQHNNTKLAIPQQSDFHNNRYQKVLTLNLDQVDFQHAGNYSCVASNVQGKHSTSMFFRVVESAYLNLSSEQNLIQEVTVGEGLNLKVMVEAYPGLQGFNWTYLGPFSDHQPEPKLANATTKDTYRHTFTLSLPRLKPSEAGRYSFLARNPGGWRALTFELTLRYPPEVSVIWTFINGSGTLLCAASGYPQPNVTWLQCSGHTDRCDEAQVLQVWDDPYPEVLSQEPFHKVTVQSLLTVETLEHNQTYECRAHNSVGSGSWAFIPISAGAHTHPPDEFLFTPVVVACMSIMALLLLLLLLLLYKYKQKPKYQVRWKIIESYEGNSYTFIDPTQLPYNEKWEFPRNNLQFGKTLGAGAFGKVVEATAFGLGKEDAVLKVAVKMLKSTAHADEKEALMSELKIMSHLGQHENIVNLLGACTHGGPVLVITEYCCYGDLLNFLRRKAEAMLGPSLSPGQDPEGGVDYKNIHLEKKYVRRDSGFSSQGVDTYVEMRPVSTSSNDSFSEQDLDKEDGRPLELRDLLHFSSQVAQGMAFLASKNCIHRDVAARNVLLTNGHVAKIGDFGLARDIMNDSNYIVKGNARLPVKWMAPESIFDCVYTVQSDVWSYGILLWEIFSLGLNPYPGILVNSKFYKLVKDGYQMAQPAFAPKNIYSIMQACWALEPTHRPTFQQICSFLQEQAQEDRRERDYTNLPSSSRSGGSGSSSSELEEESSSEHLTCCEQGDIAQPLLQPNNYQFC
Chain of RPS6KB2 (human) (Q9UBS0 whole entry, looked up): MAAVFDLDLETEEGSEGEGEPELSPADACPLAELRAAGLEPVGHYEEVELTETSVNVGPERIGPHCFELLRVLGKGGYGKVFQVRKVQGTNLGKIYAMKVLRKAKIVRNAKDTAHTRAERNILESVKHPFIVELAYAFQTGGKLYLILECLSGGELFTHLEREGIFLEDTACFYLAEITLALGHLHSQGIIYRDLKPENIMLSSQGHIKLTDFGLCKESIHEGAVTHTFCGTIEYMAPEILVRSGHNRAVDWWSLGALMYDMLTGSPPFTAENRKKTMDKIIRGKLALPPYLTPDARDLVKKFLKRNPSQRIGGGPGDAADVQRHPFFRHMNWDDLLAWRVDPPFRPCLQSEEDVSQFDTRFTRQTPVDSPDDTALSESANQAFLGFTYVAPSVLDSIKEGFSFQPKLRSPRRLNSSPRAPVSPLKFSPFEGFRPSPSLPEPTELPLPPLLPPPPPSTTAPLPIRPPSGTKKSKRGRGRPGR
Chain of MAPK14 (human) (Q16539 whole entry, looked up): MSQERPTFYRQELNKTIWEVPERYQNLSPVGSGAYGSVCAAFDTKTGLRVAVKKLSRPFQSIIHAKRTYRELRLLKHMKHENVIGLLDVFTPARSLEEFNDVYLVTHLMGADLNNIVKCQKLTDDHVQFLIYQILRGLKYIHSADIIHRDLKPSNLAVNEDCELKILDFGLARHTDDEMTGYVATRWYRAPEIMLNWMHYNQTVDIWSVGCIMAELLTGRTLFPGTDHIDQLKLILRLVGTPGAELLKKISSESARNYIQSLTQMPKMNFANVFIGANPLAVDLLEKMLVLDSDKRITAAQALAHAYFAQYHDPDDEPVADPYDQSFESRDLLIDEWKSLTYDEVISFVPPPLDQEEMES
Chain of MAPK12 (human) (P53778 whole entry, looked up): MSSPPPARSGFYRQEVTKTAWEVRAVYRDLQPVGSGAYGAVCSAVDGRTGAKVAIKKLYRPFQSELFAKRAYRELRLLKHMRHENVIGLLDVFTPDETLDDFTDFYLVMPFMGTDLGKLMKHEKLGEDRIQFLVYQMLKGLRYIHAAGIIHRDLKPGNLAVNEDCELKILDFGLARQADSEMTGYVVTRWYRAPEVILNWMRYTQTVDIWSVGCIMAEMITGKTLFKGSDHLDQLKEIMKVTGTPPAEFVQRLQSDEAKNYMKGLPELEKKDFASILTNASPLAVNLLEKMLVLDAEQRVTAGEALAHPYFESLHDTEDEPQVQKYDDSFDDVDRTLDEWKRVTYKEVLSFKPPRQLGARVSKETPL
Chain of PTK2 (human) (Q05397 whole entry, looked up): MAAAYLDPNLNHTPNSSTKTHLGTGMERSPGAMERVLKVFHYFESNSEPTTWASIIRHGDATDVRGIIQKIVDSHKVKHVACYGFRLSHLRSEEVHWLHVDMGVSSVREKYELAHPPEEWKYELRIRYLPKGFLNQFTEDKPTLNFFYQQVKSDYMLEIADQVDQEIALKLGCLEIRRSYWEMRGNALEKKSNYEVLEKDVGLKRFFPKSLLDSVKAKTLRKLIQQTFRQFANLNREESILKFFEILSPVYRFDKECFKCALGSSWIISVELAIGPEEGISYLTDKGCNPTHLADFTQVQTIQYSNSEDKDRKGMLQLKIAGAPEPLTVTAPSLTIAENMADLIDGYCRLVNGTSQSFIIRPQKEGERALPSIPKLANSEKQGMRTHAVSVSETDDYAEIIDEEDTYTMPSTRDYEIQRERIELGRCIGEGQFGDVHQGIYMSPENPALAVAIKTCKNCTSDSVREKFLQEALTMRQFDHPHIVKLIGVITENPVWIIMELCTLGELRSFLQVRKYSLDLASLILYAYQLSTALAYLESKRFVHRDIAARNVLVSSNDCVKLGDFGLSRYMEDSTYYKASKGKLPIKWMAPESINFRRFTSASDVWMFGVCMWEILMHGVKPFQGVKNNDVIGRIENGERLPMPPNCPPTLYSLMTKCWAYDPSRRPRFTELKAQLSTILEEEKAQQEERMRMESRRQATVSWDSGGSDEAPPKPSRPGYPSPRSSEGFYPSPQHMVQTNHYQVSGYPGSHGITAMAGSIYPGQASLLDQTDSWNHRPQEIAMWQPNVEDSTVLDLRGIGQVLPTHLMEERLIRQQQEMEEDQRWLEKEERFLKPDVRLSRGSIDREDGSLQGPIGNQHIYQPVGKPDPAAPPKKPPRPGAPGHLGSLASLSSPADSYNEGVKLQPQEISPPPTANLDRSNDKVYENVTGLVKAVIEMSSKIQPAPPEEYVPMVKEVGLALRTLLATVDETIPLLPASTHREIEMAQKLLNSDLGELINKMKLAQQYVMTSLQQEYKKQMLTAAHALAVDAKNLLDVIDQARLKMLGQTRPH
Chain of RPS6KA2 KD1 KD2 (human) (Q15349 whole entry, looked up): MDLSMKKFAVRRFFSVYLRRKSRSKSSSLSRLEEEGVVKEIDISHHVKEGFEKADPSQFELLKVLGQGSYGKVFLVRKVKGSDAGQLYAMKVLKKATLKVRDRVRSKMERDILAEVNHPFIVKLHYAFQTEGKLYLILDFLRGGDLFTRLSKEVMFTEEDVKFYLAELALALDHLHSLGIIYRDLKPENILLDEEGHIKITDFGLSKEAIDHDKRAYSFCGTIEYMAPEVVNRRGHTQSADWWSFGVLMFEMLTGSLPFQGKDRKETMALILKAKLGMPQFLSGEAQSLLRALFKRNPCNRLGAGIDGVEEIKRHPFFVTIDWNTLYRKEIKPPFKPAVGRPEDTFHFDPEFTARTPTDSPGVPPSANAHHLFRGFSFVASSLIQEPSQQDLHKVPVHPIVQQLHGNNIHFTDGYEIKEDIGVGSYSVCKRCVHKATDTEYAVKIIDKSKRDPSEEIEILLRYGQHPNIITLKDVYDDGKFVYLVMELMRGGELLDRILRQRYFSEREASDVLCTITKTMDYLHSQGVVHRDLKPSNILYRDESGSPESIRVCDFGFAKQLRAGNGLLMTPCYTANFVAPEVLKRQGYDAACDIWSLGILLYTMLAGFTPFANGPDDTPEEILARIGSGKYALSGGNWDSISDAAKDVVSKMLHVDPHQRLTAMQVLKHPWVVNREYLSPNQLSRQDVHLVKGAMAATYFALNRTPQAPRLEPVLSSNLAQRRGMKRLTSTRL
Chain of ACVR1 (human) (Q04771 whole entry, looked up): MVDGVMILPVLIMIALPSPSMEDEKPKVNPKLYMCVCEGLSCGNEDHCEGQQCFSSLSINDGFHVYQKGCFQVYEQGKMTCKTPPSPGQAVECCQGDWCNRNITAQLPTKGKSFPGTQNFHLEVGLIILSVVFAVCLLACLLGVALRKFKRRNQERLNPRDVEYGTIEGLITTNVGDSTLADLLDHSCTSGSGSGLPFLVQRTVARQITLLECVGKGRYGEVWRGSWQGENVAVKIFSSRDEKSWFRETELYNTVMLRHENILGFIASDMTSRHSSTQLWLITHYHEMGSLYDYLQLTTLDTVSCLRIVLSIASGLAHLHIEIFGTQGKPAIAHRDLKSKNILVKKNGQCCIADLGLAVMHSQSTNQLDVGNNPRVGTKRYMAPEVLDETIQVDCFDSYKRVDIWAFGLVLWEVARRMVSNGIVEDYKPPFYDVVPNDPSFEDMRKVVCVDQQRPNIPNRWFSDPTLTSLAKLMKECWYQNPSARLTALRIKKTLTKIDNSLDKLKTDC
Chain of CLK4 (human) (Q9HAZ1 whole entry, looked up): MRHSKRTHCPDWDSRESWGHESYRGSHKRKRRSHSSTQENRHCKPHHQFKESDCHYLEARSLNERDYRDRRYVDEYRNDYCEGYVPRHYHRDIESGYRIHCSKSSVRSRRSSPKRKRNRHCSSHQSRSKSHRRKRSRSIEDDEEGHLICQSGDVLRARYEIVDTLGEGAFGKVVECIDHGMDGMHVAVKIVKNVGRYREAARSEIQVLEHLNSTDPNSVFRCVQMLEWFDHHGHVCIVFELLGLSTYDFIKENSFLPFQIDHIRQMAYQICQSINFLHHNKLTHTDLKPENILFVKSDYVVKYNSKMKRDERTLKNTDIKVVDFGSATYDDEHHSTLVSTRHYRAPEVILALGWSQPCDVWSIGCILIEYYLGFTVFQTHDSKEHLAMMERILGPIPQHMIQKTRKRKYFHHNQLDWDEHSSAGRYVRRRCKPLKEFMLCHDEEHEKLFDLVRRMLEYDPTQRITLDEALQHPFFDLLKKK

## FC(F)(F)c1ccc(/C=C/c2nc(COc3ccc(CCCCn4ccnn4)cc3)co2)cc1
[1]
  residual activity: 101%
[2]
  residual activity: 101%
[3]
  residual activity: 104%
[4]
  residual activity: 102%
[5]
  residual activity: 99.6%
[6]
  residual activity: 97.7%
[7]
  residual activity: 101%
[8]
  residual activity: 88.4%
[9]
  residual activity: 96.3%
[10]
  residual activity: 101%
[11]
  residual activity: 104%
[12]
  residual activity: 103%
[13]
  residual activity: 92.6%
[14]
  residual activity: 101%
[15]
  residual activity: 102%
[16]
  residual activity: 98.3%
[17]
  residual activity: 95.1%
[18]
  residual activity: 98.3%
[19]
  residual activity: 100%
[20]
  residual activity: 99%
[21]
  residual activity: 95.5%
[22]
  residual activity: 96.7%
[23]
  residual activity: 104%
[24]
  residual activity: 97.1%
[25]
  residual activity: 93.5%
[26]
  residual activity: 96.2%
[27]
  residual activity: 103%
[28]
  residual activity: 103%
[29]
  residual activity: 93%
[30]
  residual activity: 100%
[31]
  residual activity: 97.8%
[32]
  residual activity: 99.6%
[33]
  residual activity: 104%
[34]
  residual activity: 88.3%
[35]
  residual activity: 96.8%
[36]
  residual activity: 103%
[37]
  residual activity: 98.9%
[38]
  residual activity: 95.1%
[39]
  residual activity: 96.8%
[40]
  residual activity: 103%

## COc1cc2c(cc1OC)-c1[nH]nc(Nc3cccc(F)c3)c1C2
[1]
  residual activity: 88.2%
[2]
  residual activity: 91.5%
[3]
  residual activity: 93.3%
[4]
  residual activity: 101%
[5]
  residual activity: 111%
[6]
  residual activity: 106%
[7]
  residual activity: 82.3%
[8]
  residual activity: 99.6%
[9]
  residual activity: 96.1%
[10]
  residual activity: 107%
[11]
  residual activity: 96.8%
[12]
  residual activity: 98.6%
[13]
  residual activity: 89%
[14]
  residual activity: 77.7%
[15]
  residual activity: 76.3%
[16]
  residual activity: 101%
[17]
  residual activity: 97.8%
[18]
  residual activity: 102%
[19]
  residual activity: 93.7%
[41]
  residual activity: 89%
[20]
  residual activity: 74.8%
[21]
  residual activity: 94.3%
[42]
  residual activity: 15.1%
[22]
  residual activity: 100%
[23]
  residual activity: 104%
[25]
  residual activity: 99.9%
[26]
  residual activity: 93%
[27]
  residual activity: 94.3%
[28]
  residual activity: 20%
[29]
  residual activity: 98.6%
[30]
  residual activity: 87.5%
[31]
  residual activity: 81%
[32]
  residual activity: 96.5%
[33]
  residual activity: 93.3%
[34]
  residual activity: 91.6%
[35]
  residual activity: 83.6%
[36]
  residual activity: 97.2%
[37]
  residual activity: 87.1%
[38]
  residual activity: 55.5%
[39]
  residual activity: 91.4%
[40]
  residual activity: 100%

## N/C(=N\N=C/c1ccc(-c2cccc([N+](=O)[O-])c2)o1)N[N+](=O)[O-]
[2]
  residual activity: 89.3%
[3]
  residual activity: 88.4%
[4]
  residual activity: 100%
[5]
  residual activity: 94.2%
[6]
  residual activity: 95.2%
[7]
  residual activity: 94.6%
[8]
  residual activity: 99.6%
[9]
  residual activity: 94.3%
[10]
  residual activity: 98%
[11]
  residual activity: 105%
[12]
  residual activity: 101%
[13]
  residual activity: 99.6%
[14]
  residual activity: 103%
[15]
  residual activity: 89.6%
[16]
  residual activity: 93.4%
[17]
  residual activity: 96.3%
[18]
  residual activity: 98.6%
[19]
  residual activity: 88.4%
[41]
  residual activity: 96.5%
[20]
  residual activity: 90.1%
[21]
  residual activity: 91%
[42]
  residual activity: 99.9%
[22]
  residual activity: 104%
[23]
  residual activity: 98.7%
[24]
  residual activity: 98.1%
[25]
  residual activity: 90.2%
[26]
  residual activity: 88.9%
[27]
  residual activity: 90.2%
[28]
  residual activity: 94.5%
[29]
  residual activity: 103%
[30]
  residual activity: 91.7%
[31]
  residual activity: 101%
[32]
  residual activity: 103%
[33]
  residual activity: 102%
[34]
  residual activity: 106%
[35]
  residual activity: 84.1%
[36]
  residual activity: 91.5%
[37]
  residual activity: 101%
[38]
  residual activity: 95.6%
[39]
  residual activity: 94.5%
[40]
  residual activity: 102%

## N#CCCc1ccc2c(c1)-c1[nH]c3ccc([N+](=O)[O-])cc3c1CC(=O)N2
[1]
  residual activity: 82.2%
[2]
  residual activity: 87.7%
[3]
  residual activity: 96.9%
[4]
  residual activity: 98.6%
[5]
  residual activity: 74.9%
[6]
  residual activity: 98.4%
[7]
  residual activity: 94.3%
[8]
  residual activity: 90.3%
[9]
  residual activity: 95.5%
[10]
  residual activity: 58.8%
[11]
  residual activity: 87%
[12]
  residual activity: 114%
[13]
  residual activity: 74.1%
[14]
  residual activity: 77.1%
[15]
  residual activity: 73.1%
[16]
  residual activity: 98.9%
[17]
  residual activity: 119%
[18]
  residual activity: 101%
[19]
  residual activity: 95.1%
[41]
  residual activity: 5.79%
[20]
  residual activity: 99.5%
[21]
  residual activity: 91.4%
[42]
  residual activity: 75.4%
[22]
  residual activity: 93.2%
[24]
  residual activity: 104%
[25]
  residual activity: 78.6%
[26]
  residual activity: 92.7%
[27]
  residual activity: 91.8%
[28]
  residual activity: 43.4%
[29]
  residual activity: 101%
[30]
  residual activity: 38.9%
[31]
  residual activity: 94.6%
[32]
  residual activity: 91.8%
[33]
  residual activity: 80%
[34]
  residual activity: 89.1%
[35]
  residual activity: 29.9%
[36]
  residual activity: 94.8%
[37]
  residual activity: 30%
[38]
  residual activity: 6.82%
[39]
  residual activity: 24.4%
[40]
  residual activity: 96.1%
